Measurements as given in patent US9056096B2, “Hyaluronic acid decomposition-promoting factor and inhibitor thereof” (Kao Corporation, priority 2010, dated 2015).

Experiments:
KIAA1199/HEK293 cells = assay: Inhibitor experiment: [3H]HA decomposition in HEK293 cells stably expressing KIAA1199; format: cell-based, human; settings: preliminary treatment with inhibitor 3 hours, then 6 hours with [3H]HA
Method: Cells were cultured in a medium containing [^3H]HA (40,000 dpm/mL) to confluent. […] The medium was eluted with 0.5% NaCl at 0.65 mL/min, and fractions (each 2.55 mL) were collected. The radioactivity of each fraction was measured.
Cells were cultured in a medium containing G418, and stable transformants were selected.
Cells were incubated for 3 hours with an inhibitor at a predetermined concentration and then incubated for 6 hours with [^3H]HA in the presence of the inhibitor.
In order to investigate the hyaluronic acid decomposition mechanism by the mediation of KIAA1199, HEK293 cells (KIAA1199/HEK293), in which KIAA1199 is consistently expressed, were established.

KIAA1199 mRNA [1] = assay: Induction of KIAA1199 mRNA expression in cultured RA synovial cells; format: cell-based, human; settings: inflammatory mediator added to cultured RA synovial cells
Method: (§1) Western blotting was performed through a standard method. In real-time PCR, total RNA was separated by use of RNeasy (Qiagen), and cDNA was synthesized by means of High Capacity cDNA Archive kit (Applied Biosystems, Foster City, Calif.).
Meanwhile, PGE2 (i.e., an inflammatory mediator) and several cytokines such as IL-1, IL-6, and TNF-α are present at high levels in synovial fluid of RA patients. Therefore, whether or not expression of KIAA1199 in RA synovial cells is induced by such an inflammatory mediator was investigated.

[2] = test system: cultured normal human skin fibroblasts (Detroit551); assay: [3H]HA decomposition assay using cultured normal human skin fibroblasts; format: cell-based; settings: for decomposition of hyaluronic acid by cultured fibroblasts: exogenously added [3H]HA, substance added to the culture
Method: Normal human skin fibroblasts (Detroit 551, ATCC (American Type Culture Collection), HS-27, NHDF) were cultured in an Eagle's minimal essential medium (MEM) (MP Biomedicals, Solon, Ohio) supplemented with essential amino acids, 1 mM sodium pyruvate, and 10% (vol/vol) fetal bovine serum (FBS) (JRH Biosciences, Kansas). HEK293, COS-7 cells, and human synovial fibroblasts (TOYOBO) were maintained in a Dulbecco's modified Eagle's medium (Sigma) containing 10% fetal bovine serum, 100-units/mL penicillin, and 100-μg/mL streptomycin. Culturing was performed at 37° C. in a humidified atmosphere containing 5% CO2.
[^3H]-labeled hyaluronic acid ([^3H]HA) was prepared though a slightly modified method of Underhill, Toole, et al. (C. B. Underhill and B. P. Toole, Binding of hyaluronate to the surface of cultured cells. J. Cell Biol. 82 (1979) 475-84). Specifically, confluent Detroit 551 fibroblasts were incubated with D-[1,6-^3H(N)]glucosamine hydrochloride (10-μCi/mL). A conditioned medium was pooled, and the incubated cells were digested with pronase (0.3 mg/mL) and precipitated in ethanol. The formed pellets were suspended in water and re-precipitated with 1.5% cetylpyridinium chloride and 0.03M NaCl. The thus-formed pellets were dissolved in 0.1% cetylpyridinium chloride and 0.4M NaCl and re-precipitated again in ethanol. The thus-formed pellets were suspended in 5 mM phosphate buffer (pH: 7.5), and the suspension was applied to a Sepharose CL-2B column (10×600 mm) equilibrated with 0.5% NaCl. Vo fractions were collected, and the product was precipitated in ethanol. Finally, the product was dissolved in 5 mM phosphate buffer (pH: 7.5).
Cells were cultured in a medium containing [^3H]HA (40,000 dpm/mL) to confluent. After incubation, the medium was removed and applied to a Sepharose CL-2B column (10×600 mm). The medium was eluted with 0.5% NaCl at 0.65 mL/min, and fractions (each 2.55 mL) were collected. The radioactivity of each fraction was measured.
siRNAs (TT2 cohesive end, non-modified) each having 25 nucleotides with respect to KIAA1199, HYAL2, CD44, and a negative control were purchased from Invitrogen (Carlsbad, Calif.). Each siRNA was incorporated by use of Lipofectamine RNAiMAX (Invitrogen, Carlsbad, Calif.).

KIAA1199 mRNA [3] = settings: stimulation with histamine
Method: as §1, with “Calif.). Real-time PCR was performed through TaqMan (registered trademark) technique and by means of an apparatus ABI Prism 7700 (Applied Biosystems, Foster City, Calif.).” for “Calif.).”

[4] = after stimulation with histamine

Molecule | decomposition of hyaluronic acid in KIAA1199/HEK293 cells (KIAA1199/HEK293 cells) | expression of KIAA1199 mRNA in RA synovial cells (KIAA1199 mRNA [1]) | other results
CCN1C(=O)C=CC1=O [N-ethylmaleimide] | inhibited |  | 
CO/C1=C\C(C)=C\[C@@H](C)[C@@H](O)[C@@H](C)C/C(C)=C/C=C/[C@H](OC)[C@@H]([C@@H](C)[C@@H](O)[C@H](C)[C@@]2(O)C[C@@H](O)[C@H](C)[C@@H](C(C)C)O2)OC1=O [bafilomycin A1] | inhibited |  | 
IL-β: cytokine, RA-related inflammatory mediator (probably IL-1β) |  | stimulate expression | 
IL-6: cytokine, RA-related inflammatory mediator |  | stimulate expression | 
O=C(O)CN(CCN(CC(=O)O)CC(=O)O)CC(=O)O [EDTA] | inhibited |  | 
TGF-[3]: TGF-β1, down-regulates hyaluronic acid decomposition in fibroblasts |  |  | decomposition of hyaluronic acid by cultured fibroblasts [2]: down-regulated
CC[C@@]1([C@@H]2O[C@@H]([C@H]3O[C@@](O)(CO)[C@H](C)C[C@@H]3C)C[C@@H]2C)CC[C@H]([C@]2(C)CC[C@]3(C[C@H](O)[C@@H](C)[C@@H]([C@@H](C)[C@@H](OC)[C@H](C)C(=O)O)O3)O2)O1 [monensin] | inhibited |  | 
O=c1cc(-c2ccc(O)c(O)c2)oc2c([C@@H]3O[C@H](CO)[C@@H](O)[C@H](O)[C@H]3O)c(O)cc(O)c12 [orientin] | inhibited |  | 
NCCc1c[nH]cn1 [histamine] |  |  | increase in expression level of KIAA1199 mRNA (KIAA1199 mRNA [3]): 3.7 times; Vmax of hyaluronic acid decomposition by cells [2, 4]: 1,370 μg/10^5 cells/3 days; apparent Km of hyaluronic acid decomposition by cells [2, 4]: 1,500 μg/mL; increase of Vmax of hyaluronic acid decomposition ([2]; after stimulation with histamine, versus unstimulated cells): 3.7 times; decomposition of hyaluronic acid by cultured fibroblasts [2]: up-regulated
CN(C)CCCN1c2ccccc2Sc2ccc(Cl)cc21 [chlorpromazine] | inhibited |  | 
heparin |  |  | decomposition of hyaluronic acid by cultured fibroblasts [2]: inhibited
CCCCC[C@H](O)/C=C/[C@H]1[C@H](O)CC(=O)[C@@H]1C/C=C\CCCC(=O)O [PGE2, prostaglandin E2] |  | stimulate expression | 
IL-1α: cytokine, RA-related inflammatory mediator (protein, UniProt P01583 113-271, looked up) Interleukin-1 alpha: SAPFSFLSNVKYNFMRIIKYEFILNDALNQSIIRANDQYLTAAALHNLDEAVKFDMGAYKSSKDDAKITVILRISKTQLYVTAQDEDQPVLLKEMPEIPKTITGSETNLLFFWETHGTKNYFTSVAHPNLFIATKQDYWVCLAGGPPSITDFQILENQA |  | stimulate expression | 
